Test results taken from PubChem BioAssay AID330 (DTP/NCI, 2004).
Several values for one entry are separate records, joined by “and”; a condition that tells them apart may be missing. Equal values may be shown once. Toxic doses and inconclusive results are not listed.

Test system: P388 leukemia ip, CD2F1 mice, survival T/C
Test: NCI In Vivo Anticancer Drug Screen. Data for tumor model P388 Leukemia (intraperitoneal) in CD2F1 (CDF1) mice
Conditions: endpoint: median survival time, higher = longer survival
Outline: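 Mice carrying the transplanted tumor received test compound or vehicle. Survival was recorded in each group, and the value is the treated-group measurement divided by that of the vehicle-treated control group.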

[1] = dose: 100.0 mg/kg/injection, schedule: Q01DX009 (ip), vehicle: saline with Tween-80
[2] = dose: 200.0 mg/kg/injection, schedule: Q01DX009 (ip), vehicle: saline with Tween-80
[3] = dose: 400.0 mg/kg/injection, schedule: Q01DX009 (ip), vehicle: saline with Tween-80
[4] = dose: 60.0 mg/kg/injection, schedule: Q01DX005 (ip), vehicle: saline with Tween-80
[5] = dose: 120.0 mg/kg/injection, schedule: Q01DX005 (ip), vehicle: saline with Tween-80
[6] = dose: 200.0 mg/kg/injection, schedule: Q01DX005 (ip), vehicle: saline with Tween-80
[7] = dose: 50.0 mg/kg/injection, schedule: Q01DX009 (ip), vehicle: saline
[8] = dose: 100.0 mg/kg/injection, schedule: Q01DX009 (ip), vehicle: saline
[9] = dose: 200.0 mg/kg/injection, schedule: Q01DX009 (ip), vehicle: saline
[10] = dose: 50.0 mg/kg/injection, schedule: Q01DX009 (ip), vehicle: Klucel (hydroxypropylcellulose) (HPC)
[11] = dose: 100.0 mg/kg/injection, schedule: Q01DX009 (ip), vehicle: Klucel (hydroxypropylcellulose) (HPC)
[12] = dose: 200.0 mg/kg/injection, schedule: Q01DX009 (ip), vehicle: Klucel (hydroxypropylcellulose) (HPC)
[13] = dose: 240.0 mg/kg/injection, schedule: Q01DX005 (ip), vehicle: saline with Tween-80
[14] = dose: 50.0 mg/kg/injection, schedule: Q01DX005 (ip), vehicle: saline with Tween-80
[15] = dose: 100.0 mg/kg/injection, schedule: Q01DX005 (ip), vehicle: saline with Tween-80
[16] = dose: 50.0 mg/kg/injection, schedule: Q01DX009 (ip), vehicle: saline with Tween-80
[17] = dose: 12.5 mg/kg/injection, schedule: Q01DX009 (ip), vehicle: water

In the case of `COc1ccc2c(c1)c(C(=O)O)cc(=O)n2C`, the T/C [1] is reported as 95 % of control, the T/C [2] is reported as 90 % of control and the T/C [3] is reported as 90 % of control.

`CN(C)c1ccc(/C=C(\NC(=O)c2ccccc2)c2nc3ccccc3s2)cc1` was tested, and the T/C [4] was 105 % of control, the T/C [5] was 116 % of control and the T/C [6] was 106 % of control.

For `C(=C\c1ccc2c(c1)OCO2)/c1ccnnc1`, the T/C [7] was 100 % of control, the T/C [8] was 97 % of control and the T/C [9] was 100 % of control.

In the case of `CC(=O)OC(C(=O)C=[N+]=[N-])C(OC(C)=O)C(OC(C)=O)C(=O)C=[N+]=[N-]` (configuration not stated), the T/C [10] is reported as 99 % of control, the T/C [11] is reported as 113 % of control and the T/C [12] is reported as 108 % of control.

With `O=C(Nc1c(Cl)cc(Cl)cc1Cl)ON=C1CCCCC1` the T/C [4] was 96 % of control and the T/C [5] was 102 % of control.

In the case of `O=C1Nc2ccccc2C1NC(=S)Nc1ccc(Cl)cc1` (configuration not stated), the T/C (dose: 100.0 mg/kg/injection, schedule: Q01DX001 (ip), vehicle: saline with Tween-80) is reported as 87 % of control and the T/C (dose: 200.0 mg/kg/injection, schedule: Q01DX001 (ip), vehicle: saline with Tween-80) is reported as 86 % of control.

For `CN(C)CCNc1ccc2cc3ccc(N=Nc4ccc(N(C)C)cc4)cc3nc2c1`, the T/C (dose: 100.0 mg/kg/injection, schedule: Q04DX003 (ip), vehicle: saline with Tween-80) was 100 % of control, the T/C (dose: 200.0 mg/kg/injection, schedule: Q04DX003 (ip), vehicle: saline with Tween-80) was 101 % of control and the T/C (dose: 400.0 mg/kg/injection, schedule: Q04DX003 (ip), vehicle: saline with Tween-80) was 103 % of control.

`Cc1[nH]c2ccc(N(C)C)cc2c(=O)c1CN(C)Cc1c(C)[nH]c2ccc(N(C)C)cc2c1=O` was tested, and the T/C [4] was 99 % of control, the T/C [5] was 100 % of control and the T/C [13] was 100 % of control.

With `Cc1ccc(S(=O)(=O)SSC(=S)Sc2ccccc2)cc1` the T/C [10] was 116 % of control, the T/C [11] was 107 % of control and the T/C [12] was 109 % of control.

`CCOC(CSc1ncnc2nc[nH]c12)OCC` was tested, and the T/C [7] was 100 % of control, the T/C [8] was 96 % of control and the T/C [9] was 112 % of control.

With `CN=C(c1ccc(NC(=O)c2ccc(C(=O)Nc3ccc(C(=NC)N4CCOCC4)cc3)c(Cl)c2)cc1)N1CCOCC1` the T/C (dose: 0.19 mg/kg/injection, schedule: Q01DX005 (ip), vehicle: saline) was 97 % of control, the T/C (dose: 0.39 mg/kg/injection, schedule: Q01DX005 (ip), vehicle: saline) was 100 % of control and the T/C (dose: 0.78 mg/kg/injection, schedule: Q01DX005 (ip), vehicle: saline) was 100 % of control. The T/C (dose: 1.56 mg/kg/injection, schedule: Q01DX005 (ip), vehicle: saline) was 100 % of control and the T/C (dose: 6.25 mg/kg/injection, schedule: Q01DX005 (ip), vehicle: saline) was 107 % of control.

With `O=C1C=C(Br)C(=O)c2c1[nH]c(=O)[nH]c2=O` the T/C (dose: 8.0 mg/kg/injection, schedule: Q01DX005 (ip), vehicle: DMSO) was 117 % of control, the T/C (dose: 16.0 mg/kg/injection, schedule: Q01DX005 (ip), vehicle: DMSO) was 107 % of control and the T/C (dose: 32.0 mg/kg/injection, schedule: Q01DX005 (ip), vehicle: DMSO) was 95 % of control. For the same compound, the T/C (dose: 64.0 mg/kg/injection, schedule: Q01DX005 (ip), vehicle: DMSO) was 107 % of control.

`C=C(Cl)CSC(=S)N1CCOCC1` was tested, and the T/C [14] was 101 % of control and 102 % of control and 96 % of control, the T/C [15] was 105 % of control and 107 % of control and 109 % of control and the T/C [6] was 101 % of control and 120 % of control and 97 % of control.

With `CCN(CC)CCNc1n[nH]c(=O)c2ccccc12` the T/C [16] was 104 % of control, the T/C [1] was 101 % of control and the T/C [2] was 95 % of control.

`COc1cccc2c1C(=O)c1c(O)c3c(c(O)c1C2=O)CC(OC1CC(N)C(O)C(C)O1)(C(C)=O)CC3OC1CC(N)C(O)C(C)O1` (configuration not stated) was tested, and the T/C (dose: 1.56 mg/kg/injection, schedule: Q01DX009 (ip), vehicle: water) was 107 % of control, the T/C (dose: 3.13 mg/kg/injection, schedule: Q01DX009 (ip), vehicle: water) was 103 % of control and the T/C (dose: 6.25 mg/kg/injection, schedule: Q01DX009 (ip), vehicle: water) was 108 % of control. The T/C [17] was 122 % of control.

In the case of `NC(=O)CCS(=O)(=O)Cc1ccccc1`, the T/C [14] is reported as 98 % of control, the T/C [15] is reported as 95 % of control and the T/C [6] is reported as 93 % of control.

With `O=C(CN1C(=O)c2ccccc2C1=O)NC(Cc1ccccc1)C(=O)O` (configuration not stated) the T/C [16] was 95 % of control, the T/C [1] was 105 % of control and the T/C [2] was 102 % of control. For the same compound, the T/C [3] was 95 % of control.

With `Cc1ccnc(N)c1N` the T/C (dose: 3.13 mg/kg/injection, schedule: Q01DX009 (ip), vehicle: other) was 89 % of control, the T/C (dose: 6.25 mg/kg/injection, schedule: Q01DX009 (ip), vehicle: other) was 96 % of control and the T/C (dose: 12.5 mg/kg/injection, schedule: Q01DX009 (ip), vehicle: other) was 109 % of control.

In the case of `COC(=O)c1[nH]c(=O)[nH]c(=O)c1F`, the T/C (dose: 8.0 mg/kg/injection, schedule: Q01DX009 (ip), vehicle: saline with Tween-80) is reported as 118 % of control, the T/C (dose: 16.0 mg/kg/injection, schedule: Q01DX009 (ip), vehicle: saline with Tween-80) is reported as 104 % of control and the T/C (dose: 22.0 mg/kg/injection, schedule: Q04DX003 (ip), vehicle: saline with Tween-80) is reported as 110 % of control. The T/C (dose: 25.0 mg/kg/injection, schedule: Q01DX009 (ip), vehicle: saline with Tween-80) was 100 % of control, the T/C [16] was 100 % of control and the T/C (dose: 50.0 mg/kg/injection, schedule: Q04DX003 (ip), vehicle: saline with Tween-80) was 155 % of control. The T/C [1] was 90 % of control.

With `O=C(NC(Cc1ccc(Cl)cc1)C(=O)O)c1ccc(Br)cc1` (configuration not stated) the T/C (dose: 50.0 mg/kg/injection, schedule: Q01DX005 (ip), vehicle: Klucel (hydroxypropylcellulose) (HPC)) was 100 % of control, the T/C (dose: 100.0 mg/kg/injection, schedule: Q01DX005 (ip), vehicle: Klucel (hydroxypropylcellulose) (HPC)) was 96 % of control and the T/C (dose: 200.0 mg/kg/injection, schedule: Q01DX005 (ip), vehicle: Klucel (hydroxypropylcellulose) (HPC)) was 99 % of control.

For `O=C(OCCO)c1ccccc1-c1c2cc3cc(Br)c(O)c(Br)c3oc-2c(Br)c(=O)c1Br`, the T/C (dose: 60.0 mg/kg/injection, schedule: Q01DX005 (ip), vehicle: saline) was 100 % of control, the T/C (dose: 120.0 mg/kg/injection, schedule: Q01DX005 (ip), vehicle: saline) was 94 % of control and the T/C (dose: 240.0 mg/kg/injection, schedule: Q01DX005 (ip), vehicle: saline) was 105 % of control.

With `O=C(CC1(O)C(=O)Nc2ccccc21)c1ccccn1` (configuration not stated) the T/C [10] was 102 % of control, the T/C [11] was 97 % of control and the T/C [12] was 100 % of control.

For `NC(=S)N/N=C/c1c(O)c2cc(Cl)ccc2[nH]c1=O`, the T/C [14] was 106 % of control, the T/C [15] was 112 % of control and the T/C [6] was 112 % of control.

In the case of `CC(C)(C)OC(=O)NCCCCC(NC(=O)OCc1ccccc1)C(=O)ON1C(=O)CCC1=O` (configuration not stated), the T/C [14] is reported as 101 % of control, the T/C [15] is reported as 102 % of control and the T/C [6] is reported as 107 % of control.

In the case of `CCCOc1cncc(C)n1`, the T/C (dose: 12.5 mg/kg/injection, schedule: Q01DX009 (ip), vehicle: saline) is reported as 95 % of control, the T/C (dose: 25.0 mg/kg/injection, schedule: Q01DX009 (ip), vehicle: saline) is reported as 87 % of control and the T/C [7] is reported as 101 % of control and 97 % of control.

For `C1=CCC(C(Nc2nncs2)Nc2nncs2)CC1` (configuration not stated), the T/C [4] was 107 % of control and the T/C [13] was 108 % of control.

`Cc1cccc(NC(=S)NC2C(=O)Nc3ccccc32)c1` (configuration not stated) was tested, and the T/C [4] was 102 % of control, the T/C [5] was 100 % of control and the T/C [13] was 98 % of control.

In the case of `NC1C(=O)OC(C(O)CO)C1O` (configuration not stated), the T/C [17] is reported as 100 % of control, the T/C (dose: 25.0 mg/kg/injection, schedule: Q01DX009 (ip), vehicle: water) is reported as 100 % of control and the T/C (dose: 50.0 mg/kg/injection, schedule: Q01DX009 (ip), vehicle: water) is reported as 104 % of control. The T/C (dose: 100.0 mg/kg/injection, schedule: Q01DX009 (ip), vehicle: water) was 98 % of control and the T/C (dose: 200.0 mg/kg/injection, schedule: Q01DX009 (ip), vehicle: water) was 97 % of control.

`O=[N+]([O-])c1ccc2c(c1)N=Cc1ccccc1NCCNc1ccccc1C=N2` was tested, and the T/C [7] was 95 % of control, the T/C [8] was 87 % of control and 90 % of control and the T/C [9] was 92 % of control and 93 % of control.

`CCCCC(CC)C(=O)OC(C)C(N)=O` (configuration not stated) was tested, and the T/C (dose: 50.0 mg/kg/injection, schedule: Q01DX005 (ip), vehicle: saline) was 105 % of control, the T/C (dose: 100.0 mg/kg/injection, schedule: Q01DX005 (ip), vehicle: saline) was 101 % of control and the T/C (dose: 200.0 mg/kg/injection, schedule: Q01DX005 (ip), vehicle: saline) was 101 % of control.

For `Cc1cc[n+](C2=C(Nc3ccccc3)C(=O)c3ccccc3C2=O)cc1`, the T/C (dose: 12.5 mg/kg/injection, schedule: Q01DX005 (ip), vehicle: saline with Tween-80) was 106 % of control, the T/C (dose: 25.0 mg/kg/injection, schedule: Q01DX005 (ip), vehicle: saline with Tween-80) was 114 % of control and the T/C [14] was 116 % of control and 122 % of control. The T/C [15] was 118 % of control.
